Common to all, as to type: in vivo
Data set [1] relates to wheat. Put plainly: Pre-emergence test, damage to crop plants. The conditions noted are these: application rate 320 g/ha, scored visually after 3 weeks. The source says: (§1) Seeds of monocotyledonous and dicotyledonous weed plants and crop plants are laid out in wood-fiber pots in sandy loam and covered with soil. The inventive compounds, formulated in the form of wettable powders (WP) or as emulsion concentrates (EC), are then applied to the surface of the soil cover in the form of an aqueous suspension or emulsion at a water application rate equating to 600 to 800 l/ha, with addition of 0.2% wetting agent. After the treatment, the pots are placed in a greenhouse and kept under good growth conditions for the test plants. The damage to the trial plants is scored visually after a test period of 3 weeks by comparison with untreated controls (herbicidal activity in percent (%): 100% efficacy=the plants have died, 0% efficacy=like control plants). In this test, for example, compounds no. […] Compounds no. […] Compounds no.

The subject of data set [2] is rice. The data set can be described thus: Post-emergence test, damage to crop plants. The conditions noted are these: application rate 80 g/ha, scored visually after about 3 weeks. How it is done:
(§2) Seeds of monocotyledonous and dicotyledonous weed and crop plants are laid out in sandy loam in wood-fiber pots, covered with soil and cultivated in a greenhouse under good growth conditions. 2 to 3 weeks after sowing, the test plants are treated at the one-leaf stage. The inventive compounds, formulated in the form of wettable powders (WP) or as emulsion concentrates (EC), are then sprayed as aqueous suspension or emulsion at a water application rate equating to 600 to 800 I/ha with the addition of 0.2% of wetting agent onto the green parts of the plants. After the trial plants have been left to stand in a greenhouse under optimal growth conditions for about 3 weeks, the efficacy of the formulations is scored visually in comparison to untreated controls (herbicidal action in percent (%): 100% efficacy=the plants have died, 0% efficacy=like control plants). In this test, for example, compounds no. […] Compounds no. […] Compounds no.

Data set [3] has as its system wheat. Put plainly: Post-emergence test, damage to crop plants. The conditions noted are these: application rate 80 g/ha, scored visually after about 3 weeks. How it is done:
as §2

For data set [4], the system named is corn. The data set can be described thus: Pre-emergence test, damage to crop plants. The following applies: application rate 320 g/ha, scored visually after 3 weeks.
Excerpt: as §1

Data set [5] relates to corn. Put plainly: Post-emergence test, damage to crop plants. The following applies: application rate 80 g/ha, scored visually after about 3 weeks. How it is done: as §2

Take `Cc1c(C(=O)Nc2nnnn2C)ccc2c1S(=O)(=O)C=C2` [7-1]: the damage in wheat result in data set [1] is listed as “did not cause any damage at all”.

For `CC1=Cc2c(ccc(C(=O)Nc3nonc3C)c2Cl)S1(=O)=O` [17-19], in data set [2], the damage in rice result was “did not cause any damage at all”. For the same molecule, the damage in wheat entry in data set [3] and in data set [1] was “did not cause any damage at all” in each case. The damage in corn entry in data set [4] is recorded as “did not cause any damage at all”.

For the molecule `CC1=Cc2c(ccc(C(=O)Nc3nnnn3Cc3ccc(Cl)cc3)c2Cl)S1(=O)=O` [59-51], the damage in corn result in data set [5] was “did not cause any damage at all”. Also, in data set [3], the damage in wheat result is recorded as “did not cause any damage at all”.

As for `CC1=Cc2c(ccc(C(=O)Nc3nonc3-n3cncn3)c2Cl)S1(=O)=O` [60-115], in data set [4], the damage in corn entry is recorded as “did not cause any damage at all”. Further, in data set [1], the damage in wheat result is reported as “did not cause any damage at all”.

As for `Cc1c(C(=O)Nc2nnnn2C)ccc2c1SCC=C2` [61-1], the damage in rice result in data set [2] was “did not cause any damage at all”. In addition, the damage in wheat entry in data set [3] and in data set [1] was “did not cause any damage at all” throughout.

For the molecule `Cc1c(C(=O)Nc2nnnn2C)ccc2c1S(=O)(=O)CC=C2` [67-1], the damage in corn entry in data set [5] is given as “did not cause any damage at all”. Besides, the damage in wheat entry in data set [3] is recorded as “did not cause any damage at all”.

(Values after patent publication US20150216171A1, “HERBICIDALLY ACTIVE BICYCLOARYL CARBOXYLIC ACID AMIDES” (BAYER CROPSCIENCE AG, priority 2012, published 2015).)
